Data as given in patent US11464770B2, “Anticancer pharmaceutical composition” (NATIONAL CANCER CENTER, priority 2016, dated 2022).
Like-named read-outs stand apart in the source and are kept apart here.

How the values were obtained:
melanoma cell lines = assay: Cell based assay, cell viability (CellTiter-Glo), melanoma cell lines; conditions: Homo sapiens; LOX-IMVI cell line
Outline: (§1)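 Luminescent ATP assay quantified surviving cells after three days of treatment. Compound was applied at final concentrations of 0 to 2 μM, starting 24 h after cells were seeded.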

[1] = system: breast cancer cell lines (e.g. MDA-MB-231, SK-BR-3, MDA-MB-468, HCC1954); assay: Cell based assay, cell viability (CellTiter-Glo), breast cancer cell lines
Outline: as §1

[2] = system: ovarian cancer cell lines; assay: Cell based assay, cell viability (CellTiter-Glo), ovarian cancer cell lines; conditions: Homo sapiens; OVCAR-3 cells
Outline: as §1

[3] = Breast cancer cell line MDA-MB-231-L/DOX, 72 hours, CellTiter-Glo, read-out: IC50, MDA-MB-231-L/DOX
[4] = Homo sapiens, Breast cancer cell line BT-20, 72 hours, CellTiter-Glo, read-out: IC50, BT-20
[5] = Homo sapiens, Breast cancer cell line HCC1395, 72 hours, CellTiter-Glo, read-out: IC50, HCC1395
[6] = Homo sapiens, Breast cancer cell line HCC1954, 72 hours, CellTiter-Glo, read-out: IC50, HCC1954
[7] = Homo sapiens, Breast cancer cell line JIMT-1, 72 hours, CellTiter-Glo, read-out: IC50, JIMT-1
[8] = Homo sapiens, Breast cancer cell line MCF7, 72 hours, CellTiter-Glo, read-out: IC50, MCF7
[9] = Homo sapiens, Breast cancer cell line MDA-MB-231, 72 hours, CellTiter-Glo, read-out: IC50, MDA-MB-231
[10] = Homo sapiens, Breast cancer cell line MDA-MB-468, 72 hours, CellTiter-Glo, read-out: IC50, MDA-MB-468
[11] = Homo sapiens, Breast cancer cell line SK-BR-3, 72 hours, CellTiter-Glo, read-out: IC50, SK-BR-3
[12] = Homo sapiens, BT-20 cells, 72 hours treatment, CellTiter-Glo cell viability, read-out: IC50, Breast cancer cell line BT-20
[13] = Homo sapiens, HCC1395 cells, 72 hours treatment, CellTiter-Glo cell viability, read-out: IC50, Breast cancer cell line HCC1395
[14] = Homo sapiens, HCC1954 cells, 72 hours treatment, CellTiter-Glo cell viability, read-out: IC50, Breast cancer cell line HCC1954
[15] = Homo sapiens, JIMT-1 cells, 72 hours treatment, CellTiter-Glo cell viability, read-out: IC50, Breast cancer cell line JIMT-1
[16] = Homo sapiens, MCF7 cells, 72 hours treatment, CellTiter-Glo cell viability, read-out: IC50, Breast cancer cell line MCF7
[17] = Homo sapiens, MDA-MB-231 cells, 72 hours treatment, CellTiter-Glo cell viability, read-out: IC50, Breast cancer cell line MDA-MB-231
[18] = Homo sapiens, MDA-MB-468 cells, 72 hours treatment, CellTiter-Glo cell viability, read-out: IC50, Breast cancer cell line MDA-MB-468
[19] = Homo sapiens, SK-BR-3 cells, 72 hours treatment, CellTiter-Glo cell viability, read-out: IC50, Breast cancer cell line SK-BR-3
[20] = MDA-MB-231-L/DOX cells, 72 hours treatment, CellTiter-Glo cell viability, read-out: IC50, Breast cancer cell line MDA-MB-231-L/DOX

Row | SMILES | IC50 (melanoma cell lines) | IC50 [1, 3] | IC50 [1, 4] | IC50 [1, 5] | IC50 [1, 6] | IC50 [1, 7] | IC50 [1, 8] | IC50 [1, 9] | IC50 [1, 10] | IC50 [1, 11] | IC50 [2] | IC50 [1, 12] | IC50 [1, 13] | IC50 [1, 14] | IC50 [1, 15] | IC50 [1, 16] | IC50 [1, 17] | IC50 [1, 18] | IC50 [1, 19] | IC50 [1, 20]
1 | CSc1c(C(C)=O)c(=O)c2c(Cl)ccc(Br)c2n1C(C)=O [Compound 18, 1,1′-(8-bromo-5-chloro-2-(methylthio)-4-oxoquinoline-1,3(4H)-diyl)bis(ethan-1-one)] | > 2 µM | > 2 µM | > 2 µM | > 10 µM | > 2 µM | > 10 µM | > 2 µM | > 2 µM | > 2 µM | > 2 µM | > 2 µM |  |  |  |  |  |  |  |  | 
2 | CC(=O)c1c(SCc2ccc(Cl)cc2)[nH]c2c(Br)ccc(Cl)c2c1=O [Compound 10, 3-acetyl-8-bromo-5-chloro-2-((4-chlorobenzyl)thio)quinolin-4(1H)-one] | > 2 µM | > 2 µM | > 2 µM | > 10 µM | > 2 µM | > 10 µM | > 2 µM | > 2 µM | > 2 µM | > 2 µM | > 2 µM |  |  |  |  |  |  |  |  | 
3 | CC(=O)c1c(S)[nH]c2c(Br)ccc(Cl)c2c1=O [Compound 62, 3-acetyl-8-bromo-5-chloro-2-mercaptoquinolin-4(1H)-one] | > 2 µM | > 2 µM | > 2 µM | > 10 µM | > 2 µM | > 10 µM | > 2 µM | > 2 µM | > 2 µM | > 2 µM | > 2 µM |  |  |  |  |  |  |  |  | 
4 | CC(=O)c1c(SCc2cc(Cl)ccc2Cl)[nH]c2c(Br)ccc(Cl)c2c1=O [Compound 43, 3-acetyl-8-bromo-5-chloro-2-((2,5-dichlorobenzyl)thio)quinolin-4(1H)-one] | > 2 µM | > 2 µM | > 2 µM | > 10 µM | > 2 µM | > 10 µM | > 2 µM | > 2 µM | > 2 µM | > 2 µM | > 2 µM |  |  |  |  |  |  |  |  | 
5 | CC(=O)c1c([S+]([O-])CN2C(=O)c3ccccc3C2=O)[nH]c2c(Cl)ccc(Cl)c2c1=O (centres unmarked) [Compound 90, 2-(((3-acetyl-5,8-dichloro-4-oxo-1,4-dihydroquinolin-2-yl)sulfinyl)methyl)isoindoline-1,3-dione] | > 2 µM |  |  |  |  |  |  |  |  |  | > 2 µM | > 2 µM | > 10 µM | > 2 µM | > 10 µM | > 2 µM | > 2 µM | > 2 µM | > 2 µM | > 2 µM
6 | CSc1[nH]c2ccc(F)cc2c(=O)c1C(C)=O [Compound 8, 1-(6-fluoro-4-hydroxy-2-(methylthio)quinolin-3-yl)ethan-1-one] | > 2 µM | > 2 µM | > 2 µM | > 10 µM | > 2 µM | > 10 µM | > 2 µM | > 2 µM | > 2 µM | > 2 µM | > 2 µM |  |  |  |  |  |  |  |  | 
7 | CC(=O)c1c([S+]([O-])Cc2ccc(Cl)nc2)[nH]c2c(Br)ccc(Cl)c2c1=O (centres unmarked) [Compound 104, 3-acetyl-8-bromo-5-chloro-2-(((6-chloropyridin-3-yl)methyl)sulfinyl)quinolin-4(1H)-one] | 0.88 µM |  |  |  |  |  |  |  |  |  | 0.84 µM | > 2 µM | > 10 µM | 1.05 µM | > 10 µM | > 2 µM | 1.54 µM | 1.46 µM | 0.93 µM | > 2 µM
8 | CC(=O)c1c(SCc2ccc(F)c(Cl)c2)[nH]c2c(Br)ccc(Cl)c2c1=O [Compound 30, 3-acetyl-8-bromo-5-chloro-2-((3-chloro-4-fluorobenzyl)thio)quinolin-4(1H)-one] | > 2 µM | > 2 µM | > 2 µM | > 10 µM | > 2 µM | > 10 µM | > 2 µM | > 2 µM | > 2 µM | > 2 µM | > 2 µM |  |  |  |  |  |  |  |  | 
9 | CC(=O)c1c([S+]([O-])Cc2cc(C)on2)[nH]c2c(F)ccc(F)c2c1=O (centres unmarked) [Compound 82, 3-acetyl-5,8-difluoro-2-(((5-methylisoxazol-3-yl)methyl)sulfinyl)quinolin-4(1H)-one] | > 2 µM |  |  |  |  |  |  |  |  |  | > 2 µM | > 2 µM | > 10 µM | > 2 µM | > 10 µM | > 2 µM | > 2 µM | > 2 µM | 1.77 µM | > 2 µM
10 | CSc1c(C(C)=O)c(=O)c2cc(F)ccc2n1C [Compound 7, 3-acetyl-6-fluoro-1-methyl-2-(methylthio)quinolin-4(1H)-one] | > 2 µM | > 2 µM | > 2 µM | > 10 µM | > 2 µM | > 10 µM | > 2 µM | > 2 µM | > 2 µM | > 2 µM | > 2 µM |  |  |  |  |  |  |  |  | 
